# Laboratory results reported in patent US7858579B2, “Thermoprotective compositions of pkg pathway inhibitors and method of use thereof” (priority 2005, dated 2010).
# What was measured:
# [1] = test system: febrile seizures; conditions: intermittent treatment of febrile seizures; cited from earlier work
# [2] = test system: ventilatory pattern generator of the locust, Locusta migratoria; assay: Hyperthermic failure and recovery of locust ventilatory motor pattern; type: in vivo
# [3] = test system: ventilatory pattern generator of the locust, Locusta migratoria; assay: as above; type: in vivo; conditions: for thermotolerance of neural function (failure temperature, FIG. 7A): 1 μM KT5823, 1 μM Cantharidin, 40 μM 8-Bromo cGMP
# Procedure: To determine if the thermoprotective consequences of PKG manipulations also apply to central circuitry and motor pattern generation, the thermotolerance of the ventilatory pattern generator was measured (Robertson, R. M. 2004) of the locust, Locusta migratoria. […] Ventilatory arrhythmias (Arr) in untreated animals prior to hyperthermic failure are rarely seen in preparations treated with the PKG inhibitor (FIG. 4.). At failure, temperature was returned to room temperature and time to recovery recorded. Pretreated controls recover after 180.2±42.4 sec whereas KT5823-pretreated animals recover after 62.3±13.4 sec. […] Once ventilatory pattern failure occurs during a temperature ramp, heating was terminated and the motor pattern was monitored until recovery.
# Male locusts aged 4-6 weeks were dissected and pinned on a cork board; overlying tissue was removed exposing the metathoracic ganglion. Standard locust saline was superfused and heated at a rate of 5° C./2 min. until motor pattern failure, after which saline was allowed to return to room temperature. Ventilatory motor patterns were monitored using an EMG electrode on muscle 161 in the second abdominal segment. Pressure injection (32±13.5 nL, 10 psi, 150 ms) into the ventilatory neuropil was with a glass microelectrode filled with either 1 μM KT5823 in standard locust saline or locust saline alone (sham treatment) 10 min. (pretreated) before, or during (acutely treated; ˜3 min. before failure in controls) the temperature ramp.
# FIGS. 7 to 8 illustate hyperthermic failure of locust ventilatory motor pattern generation. FIG. 8 illustrates sample traces of the ventilatory rhythm recorded from an abdominal expiratory muscle in a control locust. The ventilatory arrhythmias prior to failure should be noted. At failure, temperature was allowed to return to room temperature and time to recovery was recorded. The ventilatory motor pattern after recovery is at a lower frequency than just prior to failure because the temperature is lower. […] Significant differences were found across all groups (ANOVA F(9,105)=13.160, p<0.001). […] Here too significant differences were found across all groups (ANOVA […], p<0.001) N>5 for all treatments. […] Error bars represent SEM.
structure (smiles),measurement,setting,value
CN1C(=O)CN=C(c2ccccc2)c2cc(Cl)ccc21 [diazepam],reduction in risk per patient year,[1],44%
COC(=O)[C@@]1(OC)C[C@H]2O[C@]1(C)n1c3ccccc3c3c4c(c5c6ccccc6n2c5c31)C(=O)N(C)C4 [KT5823],"thermal protection of the circuit, pretreated",[2]; 25 nL of 1 μM injected 10 minutes before increasing temperature,thermoprotection and rapid recovery of the circuit was observed
same,"thermal protection of the circuit, acutely treated",[2]; one 25 nL dose injected during temperature ramp 3 min. before failure,extremely rapid and equally pronounced thermal protection of the circuit was observed
same,time to recovery of ventilatory motor pattern after failure,"[2]; pretreated: 25 nL of 1 μM injected into ventilatory neuropil 10 min before temperature ramp, return to room temperature at failure",62.3 ± 13.4 s
same,"thermotolerance of neural function (failure temperature, FIG. 7A)",[3],increased the thermotolerance of neural function
same,"acute effect of injection on ventilatory rhythm frequency, burst duration or duty cycle","[3]; 1 μM pressure injection, data not shown",no acute effect
same,preparations with arrhythmias before failure,"[3]; during temperature ramp, controls 60%",11%
"CC12C(=O)OC(=O)C1(C)C1CCC2O1 (stereo not shown) [Cantharidin, Hexahydro-3a,7a-dimethyl-4,7-epoxyisobenzofuran-1,3-dione]",thermotolerance in HS animals given 8-Bromo cGMP plus Cantharidin,"[3]; 1 μM Cantharidin with 40 μM 8-Bromo cGMP, HS animals",counteracted the effect of 8-Bromo cGMP in HS animals thereby inducing maximal thermotolerance
same,"thermotolerance of neural function (failure temperature, FIG. 7A)",[3],increased the thermotolerance of neural function
Nc1ncnc2c1ncn2[C@@H]1O[C@@H]2COP(O)(=S)O[C@H]2[C@H]1O (stereo partly shown) [RP-cAMP],failure temperature compared with controls,"[3]; PKA inhibitor, data not shown",no significant differences
same,recovery time compared with controls,"[3]; PKA inhibitor, data not shown",no significant differences
"Nc1nc2c(nc(Br)n2[C@@H]2O[C@@H]3COP(=O)(O)O[C@H]3[C@H]2O)c(=O)[nH]1 [8-Bromo cGMP, 8-bromo-guanosine 3′,5′-cyclic monophosphate]","thermotolerance of neural function (failure temperature, FIG. 7A)",[3],did not increase the thermotolerance of the circuit
same,effect on protective effects of heat shock preconditioning,"[3]; 40 μM, HS animals (3 hr at 45° C.)",abolished the protective effects of heat shock preconditioning
